In PubChem BioAssay (NCI) one finds GI50 and TGI data, which are given here for seven molecules.

Among the test systems are MDA-MB-231 breast; HL-60(TB) leukemia; HS 578T breast; SF-268 CNS; M14 melanoma; CCRF-CEM leukemia; OVCAR-8 ovarian; M19-MEL melanoma; DLD-1 colon; DMS 273 small cell lung.
Test in all cases: NCI-60 cell line screen, 48 h

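Step 1: Grow cells in 96-well plates. Step 2: Expose to compound for 48 hours at 5 concentrations. Step 3: Interpolate endpoints linearly; if unreached, use highest concentration. Abbreviation: GI50, concentration required for 50% inhibition of growth. The concentration for full growth arrest is given as TGI.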 A value given as a limit tells only on which side of the number the result lay.

Turning to `CCN(CC)CCNc1ccc([N+](=O)[O-])c2sc3cc(Cl)ccc3c(=O)c12`, the GI50 with MDA-MB-231 breast was 1740 nM; in the assay with HL-60(TB) leukemia it was 11.5 µM; in the assay with HS 578T breast it was 4410 nM; with SF-268 CNS, 9.88 µM; in the assay with M14 melanoma it was 3.1 µM; in the assay with CCRF-CEM leukemia, 3170 nM. Also, the TGI is 5.01 µM in the assay on MDA-MB-231 breast; over 100 µM in the assay on HL-60(TB) leukemia; 37.1 µM in the assay on HS 578T breast; 46.9 µM in the assay on SF-268 CNS; over 100 µM in the assay on M14 melanoma; over 100 µM with CCRF-CEM leukemia.

Turning to `COc1cc2c(cc1OCCCOc1ccc(-c3cc4ccccc4c4ccccc34)cc1)N=C[C@@H]1CCCN1C2=O`, the GI50 in the assay on MDA-MB-231 breast was 291 nM; with HL-60(TB) leukemia, 0.171 µM; in the assay with OVCAR-8 ovarian it was 425 nM; in the assay on HS 578T breast it was 645 nM; in the assay on SF-268 CNS, 0.86 µM; with CCRF-CEM leukemia, 237 nM. Further, the TGI in the assay on MDA-MB-231 breast was 1.27 µM; with HL-60(TB) leukemia, 0.393 µM; in the assay on OVCAR-8 ovarian, 1.98 µM; in the assay with HS 578T breast, 3.11 µM; with SF-268 CNS, 2.08 µM.

Turning to `Cc1cc(Nc2ccc(Cl)cc2)nc(NCCCNc2ccnc3cc(Cl)ccc23)n1`, in the assay on HS 578T breast, the GI50 was 1840 nM and the TGI amounted to 3.98 µM.

As to `COC(=O)C(NC(=O)c1ccccc1)C(c1c(O)cc(O)cc1O)P(=O)(OC)OC` (stereo not given), the TGI in the assay with M19-MEL melanoma, in the assay with HL-60(TB) leukemia, in the assay on OVCAR-8 ovarian, in the assay on SF-268 CNS, with M14 melanoma and in the assay with DLD-1 colon was over 100 µM throughout. Also, the TGI in the assay on DMS 273 small cell lung and in the assay with CCRF-CEM leukemia was over 100 µM in each case.

Consider `CCOC(=O)c1csc(NC(=O)C(C)N2CCOCC2)n1` (stereo not given), for which the TGI with MDA-MB-231 breast, with HL-60(TB) leukemia, in the assay on OVCAR-8 ovarian, with M14 melanoma and with CCRF-CEM leukemia was over 100 µM throughout.

For `NC(Cc1ccccc1CP(=O)(O)O)C(=O)O` (stereo not given), the TGI with MDA-MB-231 breast, in the assay on HL-60(TB) leukemia, in the assay on OVCAR-8 ovarian, in the assay on HS 578T breast, in the assay on SF-268 CNS and in the assay on M14 melanoma was over 100 µM in each case. Also, the TGI in the assay with CCRF-CEM leukemia was over 100 µM.

On to `c1cncc([O][Ge]([O]c2cccnc2)([O]c2cccnc2)[O]c2cccnc2)c1`, for which the GI50 with M19-MEL melanoma is over 100 µM; in the assay with OVCAR-8 ovarian it was over 100000 nM; in the assay on M14 melanoma, over 100 µM; in the assay with DLD-1 colon, over 100 µM; with DMS 273 small cell lung, over 100 µM. Moreover, the TGI with M19-MEL melanoma, in the assay on OVCAR-8 ovarian, in the assay on M14 melanoma, in the assay on DLD-1 colon and in the assay with DMS 273 small cell lung was over 100 µM each time.
